Here are results for five compounds from US8598356B2, “Heteroaryl-substituted urea modulators of fatty acid amide hydrolase” (Janssen Pharmaceutica NV, priority 2008, dated 2013).

Where only a bound is given, the exact number is not on record here.

One assay deals with T1, Rat FAAH (Rattus norvegicus, UniProt P97612).
T1 construct: expressed in transfected cells
T1 sequence (P97612 1-579): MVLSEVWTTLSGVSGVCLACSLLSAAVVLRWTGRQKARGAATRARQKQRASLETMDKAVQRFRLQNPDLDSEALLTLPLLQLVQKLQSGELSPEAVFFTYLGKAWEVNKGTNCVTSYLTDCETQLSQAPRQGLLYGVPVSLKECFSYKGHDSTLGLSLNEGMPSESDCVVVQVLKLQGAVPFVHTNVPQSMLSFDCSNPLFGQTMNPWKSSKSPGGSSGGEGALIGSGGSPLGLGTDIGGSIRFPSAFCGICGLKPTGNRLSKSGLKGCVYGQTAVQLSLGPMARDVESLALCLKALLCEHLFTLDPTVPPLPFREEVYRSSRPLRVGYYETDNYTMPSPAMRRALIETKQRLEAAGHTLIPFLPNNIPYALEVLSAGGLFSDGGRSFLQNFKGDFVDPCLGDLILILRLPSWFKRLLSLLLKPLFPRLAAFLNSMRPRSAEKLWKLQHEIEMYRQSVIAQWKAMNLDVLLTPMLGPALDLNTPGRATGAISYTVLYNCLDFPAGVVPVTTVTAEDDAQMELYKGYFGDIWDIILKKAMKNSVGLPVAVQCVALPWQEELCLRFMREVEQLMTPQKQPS
Briefly: Assay Method 2: FAAH assay, hydrolysis of 3H-anandamide by cell homogenate. The format is biochemical. The following applies: T84 or transfected SK-N-MC cell homogenate, 3H-AEA 80 nM, rt 1 h, average of results obtained. The procedure:
A. Transfection of Cells with Rat FAAH
(§1) A 10-cm tissue culture dish with a confluent monolayer of SK-N-MC cells was split 2 days (d) prior to transfection. Using sterile technique, the media was removed and the cells were detached from the dish by the addition of trypsin. One fifth of the cells were then placed onto a new 10-cm dish. Cells were grown in a 37° C. incubator with 5% CO2 in Minimal Essential Media Eagle with 10% Fetal Bovine Serum. After 2 d, cells were approximately 80% confluent. These cells were removed from the dish with trypsin and pelleted in a clinical centrifuge. The pellet was re-suspended in 400 μL complete media and transferred to an electroporation cuvette with a 0.4 cm gap between the electrodes. Supercoiled rat FAAH cDNA (1 μg) was added to the cells and mixed. The voltage for the electroporation was set at 0.25 kV, and the capacitance was set at 960 After electroporation, the cells were diluted into complete media (10 mL) and plated onto four 10-cm dishes. Because of the variability in the efficiency of electroporation, four different concentrations of cells were plated. The ratios used were 1:20, 1:10, and 1:5, with the remainder of the cells being added to the fourth dish. The cells were allowed to recover for 24 h before adding the selection media (complete media with 600 μg/mL G418). After 10 d, dishes were analyzed for surviving colonies of cells. Dishes with well-isolated colonies were used. Cells from individual colonies were isolated and tested.
(§2) T84 frozen cell pellets or transfected SK-N-MC cells (contents of 1×15 cm culture dishes) were homogenized in 50 mL of FAAH assay buffer (125 mM Tris, 1 mM EDTA, 0.2% Glycerol, 0.02% Triton X-100, 0.4 mM Hepes, pH 9). The assay mixture consisted of 50 μL of the cell homogenate, 10 μL of the test compound, and 40 μL of anandamide [1-^3H-ethanolamine] (^3H-AEA, Perkin-Elmer, 10.3 Ci/mmol), which was added last, for a final tracer concentration of 80 nM. The reaction mixture was incubated at rt for 1 h. During the incubation, 96-well Multiscreen filter plates (catalog number MAFCNOB50; Millipore, Bedford, Mass., USA) were loaded with 25 of activated charcoal (Multiscreen column loader, catalog number MACL09625, Millipore) and washed once with 100 μL of MeOH. Also during the incubation, 96-well DYNEX MicroLite plates (catalog number NL510410) were loaded with 100 μL of MicroScint40 (catalog number 6013641, Packard Bioscience, Meriden, Conn., USA). After the 1 h incubation, 60 μL of the reaction mixture were transferred to the charcoal plates, which were then assembled on top of the DYNEX plates using Centrifuge Alignment Frames (catalog number MACF09604, Millipore). The unbound labeled ethanolamine was centrifuged through to the bottom plate (5 min at 2000 rpm), which was preloaded with the scintillant, as described above. The plates were sealed and left at rt for 1 h before counting on a Hewlett Packard TopCount.
(§3) Results for compounds tested in these assays are summarized in Table 1, as an average of results obtained. Compounds were tested in free base, hydrochloride salt, and/or trifluoroacetic acid salt forms. Where activity is shown as greater than (>) a particular value, the value is the solubility limit of the compound in the assay medium or the highest concentration tested in the assay.

In another assay the target is T2, Human FAAH (Homo sapiens, UniProt O00519).
T2 construct: expressed in transfected cells; alternatively T84 frozen cell pellets
T2 sequence (O00519 1-579): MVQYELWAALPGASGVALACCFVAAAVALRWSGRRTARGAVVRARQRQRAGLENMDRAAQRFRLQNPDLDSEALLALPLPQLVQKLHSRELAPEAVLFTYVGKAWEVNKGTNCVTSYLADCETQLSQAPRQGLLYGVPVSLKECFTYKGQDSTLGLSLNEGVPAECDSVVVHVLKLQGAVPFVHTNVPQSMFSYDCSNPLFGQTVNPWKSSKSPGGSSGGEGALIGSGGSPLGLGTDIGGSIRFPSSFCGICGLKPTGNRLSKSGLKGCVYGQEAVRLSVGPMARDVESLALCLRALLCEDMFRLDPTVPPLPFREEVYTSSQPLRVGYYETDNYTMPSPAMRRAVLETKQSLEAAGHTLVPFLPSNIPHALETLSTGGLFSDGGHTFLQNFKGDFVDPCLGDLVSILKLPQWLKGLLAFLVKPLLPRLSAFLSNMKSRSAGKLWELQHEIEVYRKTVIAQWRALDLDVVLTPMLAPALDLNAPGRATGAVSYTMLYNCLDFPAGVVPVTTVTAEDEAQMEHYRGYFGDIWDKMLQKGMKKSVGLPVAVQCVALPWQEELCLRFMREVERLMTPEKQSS
Briefly: Assay Method 1: FAAH assay, hydrolysis of 3H-anandamide by cell homogenate. Format: biochemical. To be noted: T84 or transfected SK-N-MC cell homogenate, 3H-AEA 80 nM, rt 1 h, average of results obtained. The method, then:
A. Transfection of Cells with Human FAAH
as §1, with “Supercoiled human” for “Supercoiled rat”, “960 μF.” for “960”
as §2, with “with 25 μL of activated” for “with 25 of activated”, “plates using” for “plates using Centrifuge Alignment Frames (catalog number MACF09604, Millipore). The unbound labeled ethanolamine was centrifuged through to the bottom plate (5 min at 2000 rpm), which was preloaded with the scintillant, as described above. The plates were sealed and left at rt for 1 h before counting on a Hewlett Packard TopCount.”
Centrifuge Alignment Frames (catalog number MACF09604, Millipore). The unbound labeled ethanolamine was centrifuged through to the bottom plate (5 min at 2000 rpm), which was preloaded with the scintillant, as described above. The plates were sealed and left at rt for 1 h before counting on a Hewlett Packard TopCount.
as §3

Consider `O=C(Nc1cccnc1)N1CCCC(Cc2cccc(Oc3ccc(OC(F)(F)F)cc3)c2)C1` (stereo not shown) [Example 15, 3-[3-(4-Trifluoromethoxy-phenoxy)-benzyl]-piperidine-1-carboxylic acid pyridine-3-ylamide], for which the IC50 stood at 17 nM against Rat FAAH and 11 nM at Human FAAH.
For `O=C(Nc1cccnc1)N1CCCC(Cc2cnc3ccccc3c2)C1` (stereo not shown) [Example 16, 3-Quinolin-3-ylmethyl-piperidine-1-carboxylic acid pyridin-3-ylamide], in that order: greater than 10000 nM and 1000 nM.
Take `O=C(Nc1cccnc1)N1CCCC(Cc2ccc(Cl)c(Cl)c2)C1` (stereo not shown) [Example 17, 3-(3,4-Dichloro-benzyl)-piperidine-1-carboxylic acid pyridin-3-ylamide]: the IC50 on Rat FAAH turned out to be 180 nM; against Human FAAH, 48 nM.
On to `O=C(Nc1cccnc1)N1CCCC(Cc2cccc(OC(F)(F)F)c2)C1` (stereo not shown) [Example 18, 3-(3-Trifluoromethoxy-benzyl)-piperidine-1-carboxylic acid pyridin-3-ylamide], for which the figures for the IC50 on Rat FAAH and against Human FAAH were 450 nM and 190 nM, respectively.
For the compound `O=C(Nc1cccnc1)N1CCCC(Cc2ccc(OC(F)(F)F)cc2)C1` (stereo not shown) [Example 19, 3-(4-Trifluoromethoxy-benzyl)-piperidine-1-carboxylic acid pyridin-3-ylamide], the IC50 on Rat FAAH is 1600 nM; against Human FAAH, 430 nM.

In general, IC50 refers to the concentration that inhibits the measured activity by half.
